Assay results published in paper PMC11141866, “Pyrimidine depletion enhances targeted and immune therapy combinations in acute myeloid leukemia” (JCI Insight, 2024).
Values after ≈ are worked out from the molar mass of the structure shown. Values joined by “and” are separate entries in the source; they are usually repeats but may differ in a detail not shown here. Equal entries are not always repeated. Where two headings read alike, the source gives them in different places.

How the values were obtained:
[1] = Thermodynamic solubility; type: physicochemical; details: thermodynamic from solid
Source text: (§1) Supplement jciinsight-9-173646-s083.xlsx, sheet "Supplemental Table S.2." | column: HOSU-53

[2] = test system: plasma DHO; experiment: DHO plasma accumulation in MOLM-13 tumor-bearing mice; type: in vivo, NCG mice; set-up: unit not given here; details: male mice, per mouse
Experimental: (§2) Male 8- to 12-week-old NCG mice were engrafted with 1 × 10^5 cells via tail vein i.v. injection. […] Figure 3B and Figure 4, A and B, share the same vehicle group. page 6: Plasma samples were obtained following appropriate dosing administration and saved in the -80°C freezer till the time of analysis. Analyses by LC-MS/MS followed sample extraction by protein precipitation and separation by Ultra Performance Liquid Chromatography (UPLC, Waters Corporation, MA, USA) using a C18 column, 1.7um, 2.1x50mm, Mobile Phase A: 5:95:0.1 (v:v:v) Acetonitrile:Water:Formic Acid, Mobile Phase B: 50:50:0.1 (v:v:v) Methanol:Acetonitrile:Formic Acid. MS/MS analyses were performed on an API-6500 (Absciex MA, USA) in positive mode using an electrospray source at 550°C. The internal standard was d4-AEA monitored at 352.2 and 66.0 m/z transitions and the target analyte, HOSU-53, was monitored at 416.5 and 331.1 m/z transitions. The assay was qualified between 10-5,000 ng/ml HOSU53 to be within ±20% for QCs above the LLOQ in this range and ±25% at the LLOQ. DHO concentration quantification in mouse plasma samples. Plasma samples were obtained following appropriate dosing administration and saved in the -80°C freezer till the time of analysis. Analyses by LC-MS/MS followed sample extraction by protein precipitation and separation by Ultra Performance Liquid Chromatography (UPLC, Waters Corporation, MA, USA) using a Phenomenex Aqua C18 100x4.6mm, 3uM, […], Mobile Phase A: 100:0.1 (v:v) Water:Formic Acid, Mobile Phase B: 100:0.1 (v:v) Methanol:Formic Acid. MS/MS analyses were performed on an API-4000 (Absciex MA, USA) in negative mode using an electrospray source at 550°C. The internal standard was labeled 13C14_L-Dihydroorotic Acid monitored at 161.3 and 117.1 m/z transitions and the target analyte, L-Dihydroorotic Acid (DHO), was monitored at 157.0 and 70.0 m/z transitions. The assay was qualified between 10.0-30,000 ng/ml DHO to be within ±20% for QCs above the LLOQ in this range and ±25% at the LLOQ.

[3] = HOSU-53 plasma exposure in MOLM-13 tumor-bearing mice; type: in vivo, NCG mice; details: per mouse; for AUC: NCG, mouse, plasma, po, read-out: HOSU-53 AUCall
Experimental: as §2

[4] = Protein binding, AAG; type: in vitro ADME; details: 0.07% AAG
Source text: as §1

[5] = target: hERG (Homo sapiens, UniProt Q12809); experiment: hERG (Q-Patch); type: cell-based
Chain of hERG (Q12809 whole entry): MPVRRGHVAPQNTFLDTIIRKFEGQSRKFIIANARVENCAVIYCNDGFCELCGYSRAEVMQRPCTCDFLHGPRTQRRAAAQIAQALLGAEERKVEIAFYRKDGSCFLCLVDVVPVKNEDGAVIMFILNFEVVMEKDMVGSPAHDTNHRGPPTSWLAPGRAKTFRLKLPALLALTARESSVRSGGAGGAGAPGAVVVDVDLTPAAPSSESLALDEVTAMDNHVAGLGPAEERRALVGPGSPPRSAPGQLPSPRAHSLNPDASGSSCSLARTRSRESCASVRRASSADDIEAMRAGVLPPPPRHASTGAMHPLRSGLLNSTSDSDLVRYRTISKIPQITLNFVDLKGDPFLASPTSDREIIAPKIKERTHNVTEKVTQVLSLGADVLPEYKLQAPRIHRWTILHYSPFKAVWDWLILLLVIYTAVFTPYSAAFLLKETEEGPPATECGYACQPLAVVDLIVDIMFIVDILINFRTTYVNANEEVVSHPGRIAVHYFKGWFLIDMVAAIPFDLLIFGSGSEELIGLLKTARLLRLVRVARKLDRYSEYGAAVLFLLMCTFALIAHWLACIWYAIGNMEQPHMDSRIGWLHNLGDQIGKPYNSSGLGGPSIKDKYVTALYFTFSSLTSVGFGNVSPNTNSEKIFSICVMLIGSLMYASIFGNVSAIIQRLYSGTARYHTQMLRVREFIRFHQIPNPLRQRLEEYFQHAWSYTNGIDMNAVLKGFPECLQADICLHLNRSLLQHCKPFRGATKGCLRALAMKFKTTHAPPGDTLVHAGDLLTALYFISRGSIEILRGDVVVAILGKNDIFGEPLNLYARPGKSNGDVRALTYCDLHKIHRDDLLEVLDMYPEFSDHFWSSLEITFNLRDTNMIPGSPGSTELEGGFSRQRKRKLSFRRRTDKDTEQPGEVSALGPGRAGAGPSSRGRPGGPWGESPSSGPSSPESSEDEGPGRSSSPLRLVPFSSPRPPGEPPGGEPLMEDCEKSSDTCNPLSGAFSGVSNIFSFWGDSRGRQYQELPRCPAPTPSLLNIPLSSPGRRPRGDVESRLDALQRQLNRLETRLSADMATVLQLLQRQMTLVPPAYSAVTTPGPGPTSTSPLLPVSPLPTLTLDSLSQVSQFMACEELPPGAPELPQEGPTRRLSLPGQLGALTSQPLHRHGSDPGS
Source text: as §1

[6] = target: CYP 2C8 (Homo sapiens, UniProt P10632); experiment: CYP inhibition 2C8; type: in vitro ADME
Chain of CYP 2C8 (P10632 whole entry): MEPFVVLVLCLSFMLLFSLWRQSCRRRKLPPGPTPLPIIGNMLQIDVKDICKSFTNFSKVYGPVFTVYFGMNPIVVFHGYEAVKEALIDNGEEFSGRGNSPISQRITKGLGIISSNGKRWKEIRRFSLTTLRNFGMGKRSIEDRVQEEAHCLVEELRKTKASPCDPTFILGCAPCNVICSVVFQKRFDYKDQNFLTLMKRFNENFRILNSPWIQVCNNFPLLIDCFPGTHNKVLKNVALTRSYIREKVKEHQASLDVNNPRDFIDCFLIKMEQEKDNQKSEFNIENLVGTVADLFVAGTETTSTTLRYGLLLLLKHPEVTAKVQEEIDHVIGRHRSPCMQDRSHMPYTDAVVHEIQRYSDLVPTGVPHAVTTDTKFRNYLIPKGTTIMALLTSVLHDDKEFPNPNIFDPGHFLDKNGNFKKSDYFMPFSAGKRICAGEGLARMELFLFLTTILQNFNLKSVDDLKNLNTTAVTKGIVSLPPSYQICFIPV
Source text: as §1

[7] = test system: primary AML samples; experiment: MTS proliferation assay, primary AML samples; type: cell-based, human; set-up: MTS proliferation data value: unit not given here; details: 96 h; for MTS proliferation data value: replicates; for IC50: Homo sapiens
Experimental: A total of 10,000–20,000 cells from different AML lines or 50,000–75,000 cells of primary AML blasts were treated in a 96-well plate for 72 hours or 96 hours at 37°C, 5% CO2. CellTiter 96 Aqueous MTS reagent (Promega) was added to cells followed by a 3-hour incubation at 37°C, 5% CO2. The absorbance was measured at 490 nm using DTX 880 plate reader, and the IC50 was calculated using GraphPad Prism.

In the case of `CCCCOc1cccc(-c2ccc(-c3cc(C(=O)O)c4cc(F)ccc4n3)cc2)c1` [HOSU-53], the solubility thermodynamic ([1]; FaSSIF, heading: Thermodynamic solubility FaSSIF) is reported as 43 µM (≈ 17.9 µg/mL), the solubility thermodynamic ([1]; FeSSIF, heading: Thermodynamic solubility FeSSIF) is reported as 373 µM (≈ 155 µg/mL) and the solubility thermodynamic ([1]; SGF, simulated gastric fluid, heading: Thermodynamic solubility SGF) is reported as less than 1.56 µM. The “DHO AUC (Figure 3C y value)” value ([2]; Day 1, 4 mpk PO, 4 mg/kg) was 21.3526 and 23.5341 and 32.163, the “DHO AUC (Figure 3C y value)” value ([2]; Day 1, 10 mpk PO, 10 mg/kg) was 124.368 and 142.962 and the “DHO AUC (Figure 3C y value)” value ([2]; Day 1, 20 mpk PO, 20 mg/kg) was 335.03 and 368.431. For the same compound, the “DHO AUC (Figure 3C y value)” value ([2]; Day 1, 30 mpk PO, 30 mg/kg) was 473.057 and 298.48 and 280.181, the “DHO AUC (Figure 3C y value)” value ([2]; Day 14, 4 mpk PO, 4 mg/kg) was 78.3977 and 135.263 and 128.423 and the “DHO AUC (Figure 3C y value)” value ([2]; Day 14, 10 mpk PO, 10 mg/kg) was 243.197 and 313.781 and 310.505. For the same compound, the “DHO AUC (Figure 3C y value)” value ([2]; Day 14, 20 mpk PO, 20 mg/kg) was 796.864 and 742.741 and 1170.82, the “DHO AUC (Figure 3C y value)” value ([2]; Day 14, 30 mpk PO, 30 mg/kg) was 464.129 and 594.047 and 535.223 and the “HOSU-53 AUCall” value ([3]; Day 1, 4 mpk PO, male mice, 4 mg/kg) was 915.984 µM·h and 1069.99 µM·h. For the same compound, the “HOSU-53 AUCall” value ([3]; Day 1, 10 mpk PO, male mice, 10 mg/kg) was 1989.31 µM·h and 1940.99 µM·h, the “HOSU-53 AUCall” value ([3]; Day 1, 20 mpk PO, male mice, 20 mg/kg) was 3244.97 µM·h and 3430.6 µM·h and the “HOSU-53 AUCall” value ([3]; Day 1, 30 mpk PO, male mice, 30 mg/kg) was 5214.04 µM·h and 4142.06 µM·h. The “HOSU-53 AUCall” value ([3]; Day 14, 4 mpk PO, male mice, 4 mg/kg) was 2230.22 µM·h and 2019.88 µM·h, the “HOSU-53 AUCall” value ([3]; Day 14, 10 mpk PO, male mice, 10 mg/kg) was 3666.3 µM·h and 3989.64 µM·h and the “HOSU-53 AUCall” value ([3]; Day 14, 20 mpk PO, male mice, 20 mg/kg) was 6180.8 µM·h and 5557.2 µM·h. For the same compound, the “HOSU-53 AUCall” value ([3]; Day 14, 30 mpk PO, male mice, 30 mg/kg) was 7551.75 µM·h and 6154.9 µM·h, the AUC ([3]; female, 10 mg/kg, Day 1, 10 mpk PO, female mice) was 2830 µM·h and the AUC ([3]; female, 10 mg/kg, Day 14, 10 mpk PO, female mice) was 3980 µM·h. It also gave an AUC ([3]; male, 4 mg/kg, Day 1, 4 mpk PO, male mice) of 780 µM·h, an AUC ([3]; male, 4 mg/kg, Day 14, 4 mpk PO, male mice) of 1930 µM·h and an AUC ([3]; male, 10 mg/kg, Day 1, 10 mpk PO, male mice) of 1890 µM·h. It also gave an AUC ([3]; male, 10 mg/kg, Day 14, 10 mpk PO, male mice) of 3860 µM·h, an AUC ([3]; male, 20 mg/kg, Day 1, 20 mpk PO, male mice) of 3670 µM·h and an AUC ([3]; male, 20 mg/kg, Day 14, 20 mpk PO, male mice) of 5090 µM·h. For the same compound, the AUC ([3]; male, 30 mg/kg, Day 1, 30 mpk PO, male mice) was 4470 µM·h, the AUC ([3]; male, 30 mg/kg, Day 14, 30 mpk PO, male mice) was 6660 µM·h and the fraction unbound [4] was 0.015. The IC50 [5] was greater than 30000 nM, the IC50 [6] was 1820 nM and the “MTS proliferation data value” ([7]; 0.25 µM, Pt.1) was 18.4884 and 20.0581 and 18.3139. For the same compound, the “MTS proliferation data value” ([7]; 0.25 µM, Pt.2) was 32.3851 (2×) and 33.2604, the “MTS proliferation data value” ([7]; 0.25 µM, Pt.3) was 55.8692 and 53.1947 and the “MTS proliferation data value” ([7]; 0.25 µM, Pt.4) was 65.8976 and 67.7546 and 63.7029. The “MTS proliferation data value” ([7]; 0.25 µM, Pt.5) was 79.2706 and 80.6142 and 76.9674, the “MTS proliferation data value” ([7]; 0.25 µM, Pt.6) was 33.7613 and 67.7492 and 73.4139 and the “MTS proliferation data value” ([7]; 0.25 µM, Pt.7) was 62.3298 and 55.7489 and 55.295. For the same compound, the “MTS proliferation data value” ([7]; 0.25 µM, Pt.8) was 107.765 and 102.823 and 101.765, the “MTS proliferation data value” ([7]; 0.5 µM, Pt.1) was 16.3954 and 17.2674 and 16.2209 and the “MTS proliferation data value” ([7]; 0.5 µM, Pt.2) was 27.5711 and 28.884 and 28.2276. The “MTS proliferation data value” ([7]; 0.5 µM, Pt.3) was 49.3314 and 49.0342 and 46.211, the “MTS proliferation data value” ([7]; 0.5 µM, Pt.4) was 54.2487 and 57.2876 and 57.4564 and the “MTS proliferation data value” ([7]; 0.5 µM, Pt.5) was 73.1286 and 69.0979 and 69.2898. For the same compound, the “MTS proliferation data value” ([7]; 0.5 µM, Pt.6) was 55.9668 and 65.2568 and 57.5529, the “MTS proliferation data value” ([7]; 0.5 µM, Pt.7) was 44.4024 and 40.0908 and 37.1407 and the “MTS proliferation data value” ([7]; 0.5 µM, Pt.8) was 86.9412 and 90.8235 and 88.3529. The “MTS proliferation data value” ([7]; 0.75 µM, Pt.1) was 15 and 14.4767 and 15.1744, the “MTS proliferation data value” ([7]; 0.75 µM, Pt.2) was 23.4136 and 22.1007 and 24.5077 and the “MTS proliferation data value” ([7]; 0.75 µM, Pt.3) was 39.8217 and 43.685 and 41.9019. The “MTS proliferation data value” ([7]; 0.75 µM, Pt.4) was 52.2229 (2×) and 53.7423, the “MTS proliferation data value” ([7]; 0.75 µM, Pt.5) was 64.4914 and 65.8349 (2×) and the “MTS proliferation data value” ([7]; 0.75 µM, Pt.6) was 26.5106 and 39.426 and 36.7069. The “MTS proliferation data value” ([7]; 0.75 µM, Pt.7) was 37.1407 and 39.8638 and 33.2829, the “MTS proliferation data value” ([7]; 0.75 µM, Pt.8) was 77.0588 (2×) and 79.1765 and the “MTS proliferation data value” ([7]; 1 µM, Pt.1) was 14.4767 and 15.5233 and 13.7791. The “MTS proliferation data value” ([7]; 1 µM, Pt.2) was 21.663 (2×) and 22.9759, the “MTS proliferation data value” ([7]; 1 µM, Pt.3) was 40.1189 and 38.633 and 39.5245 and the “MTS proliferation data value” ([7]; 1 µM, Pt.4) was 47.327 and 51.7164 and 51.5476. The “MTS proliferation data value” ([7]; 1 µM, Pt.5) was 64.6833 and 63.5317 and 66.6027, the “MTS proliferation data value” ([7]; 1 µM, Pt.6) was 19.0332 and 30.5891 and 31.9486 and the “MTS proliferation data value” ([7]; 1 µM, Pt.7) was 33.9637 and 32.6021 and 29.879. For the same compound, the “MTS proliferation data value” ([7]; 1 µM, Pt.8) was 72.1176 and 72.8235 (2×), the “MTS proliferation data value” ([7]; 5 µM, Pt.1) was 14.3023 and the “MTS proliferation data value” ([7]; 5 µM, Pt.4) was 43.444 and 45.8075 and 44.1193. For the same compound, the “MTS proliferation data value” ([7]; 5 µM, Pt.8) was 55.5294, the IC50 ([7]; n = 8 samples, 96-hour treatment, read-out: median IC50 in primary AML patient samples) was 120 nM and the IC50 ([7]; read-out: IC50 [95% CI], Pt. 1, 96-hour treatment) was 23 nM. It also gave an IC50 ([7]; read-out: IC50 [95% CI], Pt. 2, 96-hour treatment) of 103 nM, an IC50 ([7]; read-out: IC50 [95% CI], Pt. 3, 96-hour treatment) of 85 nM and an IC50 ([7]; read-out: IC50 [95% CI], Pt. 4, 96-hour treatment) of 112 nM. It also gave an IC50 ([7]; read-out: IC50 [95% CI], Pt. 5, 96-hour treatment) of 129 nM, an IC50 ([7]; read-out: IC50 [95% CI], Pt. 6, 96-hour treatment) of 155 nM and an IC50 ([7]; read-out: IC50 [95% CI], Pt. 7, 96-hour treatment) of 169 nM. It also gave an IC50 ([7]; read-out: IC50 [95% CI], Pt. 8, 96-hour treatment) of 584 nM.
